Test results from the supplement of paper PMC10307832.

Legend:
Test in all cases: relative viability (nuclei count vs DMSO), 5 days (fraction); higher = more cells survive
NCI-H1651 = test system: NCI-H1651
How it was run: (§1)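 The day after seeding in 1536-well plates, lung cancer cell lines were treated by pin tool with a single drug, or with a fixed anchor-drug dose together with five library-drug doses (not always all listed) in √10 steps. After 5 days, a combined fix-and-stain solution (final 0.05% Triton X-100, 1% formaldehyde, 1 ug/ml Hoechst) was added. Nuclei counted on 4× images gave relative viability as treated counts over vehicle counts, reported as the median of duplicate plates.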

NCI-H1648 = test system: NCI-H1648
How it was run: as §1

ChaGo-K-1 = test system: ChaGo-K-1
How it was run: as §1

SK-MES-1 = test system: SK-MES-1
How it was run: as §1

NCI-H522 = test system: NCI-H522
How it was run: as §1

A549 = test system: A549
How it was run: as §1

NCI-H1703 = test system: NCI-H1703
How it was run: as §1

Row | SMILES | relative viability (NCI-H1651; first compound 0.01 µM) | relative viability (NCI-H1651; first compound 0.03162 µM) | relative viability (NCI-H1651; first compound 0.1 µM) | relative viability (NCI-H1651; first compound 0.3162 µM) | relative viability (NCI-H1651; first compound 1 µM) | relative viability (NCI-H1648; first compound 0.01 µM) | relative viability (NCI-H1648; first compound 0.03162 µM) | relative viability (NCI-H1648; first compound 0.1 µM) | relative viability (NCI-H1648; first compound 0.3162 µM) | relative viability (NCI-H1648; first compound 1 µM) | relative viability (ChaGo-K-1; first compound 0.01 µM) | relative viability (ChaGo-K-1; first compound 0.03162 µM) | relative viability (ChaGo-K-1; first compound 0.1 µM) | relative viability (ChaGo-K-1; first compound 0.3162 µM) | relative viability (ChaGo-K-1; first compound 1 µM) | relative viability (SK-MES-1; first compound 0.01 µM) | relative viability (SK-MES-1; first compound 0.03162 µM) | relative viability (SK-MES-1; first compound 0.1 µM) | relative viability (SK-MES-1; first compound 0.3162 µM) | relative viability (SK-MES-1; first compound 1 µM) | other results
1 | NC(=O)Nc1cc(-c2cccc(F)c2)sc1C(=O)N[C@H]1CCCNC1 [AZD7762] + Nc1ncn([C@H]2C[C@H](O)[C@@H](CO)O2)c(=O)n1 [Decitabine] (partner 2 µM) | 0.612 | 0.887 | 0.698 | 0.692 | 0.315 | 0.512 | 0.671 | 0.415 | 0.462 | 0.437 | 0.52 | 0.553 | 0.565 | 0.555 | 0.597 | 0.347 | 0.394 | 0.342 | 0.289 | 0.163 | relative viability (NCI-H522; first compound 0.01 µM): 0.668; relative viability (NCI-H522; first compound 0.03162 µM): 0.709; relative viability (NCI-H522; first compound 0.1 µM): 0.714; relative viability (NCI-H522; first compound 0.3162 µM): 0.689; relative viability (NCI-H522; first compound 1 µM): 0.686; relative viability (A549; first compound 0.01 µM): 0.305; relative viability (A549; first compound 0.03162 µM): 0.252; relative viability (A549; first compound 0.1 µM): 0.27; relative viability (A549; first compound 0.3162 µM): 0.281; relative viability (A549; first compound 1 µM): 0.202
2 | O=C(O)c1ccc(-c2c[nH]c3ncc(-c4ccccc4)cc23)cc1C1CCCC1 + NC(=O)Nc1cc(-c2cccc(F)c2)sc1C(=O)N[C@H]1CCCNC1 [AZD7762] (partner 0.2 µM) | – | – | – | – | – | – | – | – | – | – | – | – | – | – | – | – | – | – | – | – | relative viability (NCI-H1651; first compound 0.04 µM): 0.326; relative viability (NCI-H1651; first compound 0.1265 µM): 0.56; relative viability (NCI-H1651; first compound 0.4 µM): 0.551; relative viability (NCI-H1651; first compound 1.265 µM): 0.426; relative viability (NCI-H1648; first compound 0.04 µM): 0.687; relative viability (NCI-H1648; first compound 0.1265 µM): 0.716; relative viability (NCI-H1648; first compound 0.4 µM): 0.82; relative viability (NCI-H1703; first compound 0.1265 µM): 0.0651; relative viability (NCI-H1703; first compound 0.4 µM): 0.148; relative viability (NCI-H1703; first compound 1.265 µM): 0.135; relative viability (ChaGo-K-1; first compound 0.04 µM): 0.845; relative viability (ChaGo-K-1; first compound 0.1265 µM): 1.02; relative viability (ChaGo-K-1; first compound 0.4 µM): 0.907; relative viability (ChaGo-K-1; first compound 1.265 µM): 0.848; relative viability (NCI-H522; first compound 0.04 µM): 0.662; relative viability (NCI-H522; first compound 0.1265 µM): 0.896; relative viability (NCI-H522; first compound 0.4 µM): 0.785; relative viability (NCI-H522; first compound 1.265 µM): 0.882
3 | NC(=O)Nc1cc(-c2cccc(F)c2)sc1C(=O)N[C@H]1CCCNC1 [AZD7762] + CC(=O)c1c(C)c2cnc(Nc3ccc(N4CCNCC4)cn3)nc2n(C2CCCC2)c1=O [Palbociclib] (partner 0.5 µM) | 0.574 | 0.525 | 0.556 | 0.558 | 0.501 | 0.394 | 0.245 | 0.277 | 0.27 | 0.283 | 1.01 | 0.953 | 0.958 | 0.932 | 1.03 | 0.339 | 0.337 | 0.328 | 0.279 | 0.2 | relative viability (NCI-H522; first compound 0.01 µM): 1.07; relative viability (NCI-H522; first compound 0.03162 µM): 0.987; relative viability (NCI-H522; first compound 0.1 µM): 0.999; relative viability (NCI-H522; first compound 0.3162 µM): 1.09; relative viability (NCI-H522; first compound 1 µM): 1
4 | NC(=O)Nc1cc(-c2cccc(F)c2)sc1C(=O)N[C@H]1CCCNC1 [AZD7762] + CC(=O)Nc1cccc(-n2c(=O)n(C3CC3)c(=O)c3c(Nc4ccc(I)cc4F)n(C)c(=O)c(C)c32)c1 [Trametinib] (partner 0.02 µM) | 0.882 | 0.852 | 0.871 | 0.873 | 0.766 | 0.506 | 0.409 | 0.513 | 0.446 | 0.514 | 0.871 | 0.914 | 0.93 | 0.9 | 0.958 | 0.543 | 0.535 | 0.559 | 0.347 | 0.227 | relative viability (NCI-H522; first compound 0.01 µM): 0.666; relative viability (NCI-H522; first compound 0.03162 µM): 0.822; relative viability (NCI-H522; first compound 0.1 µM): 0.737; relative viability (NCI-H522; first compound 0.3162 µM): 0.812; relative viability (NCI-H522; first compound 1 µM): 0.791
